According to patent US9617257B2, “Fused pyridine derivatives useful as c-Met tyrosine kinase inhibitors” (BETA PHARMACEUTICALS CO., LTD., priority 2012, dated 2017):
Where two headings read alike, the source gives them in different places.

Columns and labels:
Met (h) = molecular target: T1, Met (h) (Homo sapiens, UniProt P08581); assay: Met (h) kinase assay (33P-ATP filter assay, performed by Millipore); type: biochemical; conditions: 0.2 μM test compound; remaining activity relative to DMSO control set to 100%; duplicate
T1 construct: purchased Millipore
T1 sequence (P08581 25-1390): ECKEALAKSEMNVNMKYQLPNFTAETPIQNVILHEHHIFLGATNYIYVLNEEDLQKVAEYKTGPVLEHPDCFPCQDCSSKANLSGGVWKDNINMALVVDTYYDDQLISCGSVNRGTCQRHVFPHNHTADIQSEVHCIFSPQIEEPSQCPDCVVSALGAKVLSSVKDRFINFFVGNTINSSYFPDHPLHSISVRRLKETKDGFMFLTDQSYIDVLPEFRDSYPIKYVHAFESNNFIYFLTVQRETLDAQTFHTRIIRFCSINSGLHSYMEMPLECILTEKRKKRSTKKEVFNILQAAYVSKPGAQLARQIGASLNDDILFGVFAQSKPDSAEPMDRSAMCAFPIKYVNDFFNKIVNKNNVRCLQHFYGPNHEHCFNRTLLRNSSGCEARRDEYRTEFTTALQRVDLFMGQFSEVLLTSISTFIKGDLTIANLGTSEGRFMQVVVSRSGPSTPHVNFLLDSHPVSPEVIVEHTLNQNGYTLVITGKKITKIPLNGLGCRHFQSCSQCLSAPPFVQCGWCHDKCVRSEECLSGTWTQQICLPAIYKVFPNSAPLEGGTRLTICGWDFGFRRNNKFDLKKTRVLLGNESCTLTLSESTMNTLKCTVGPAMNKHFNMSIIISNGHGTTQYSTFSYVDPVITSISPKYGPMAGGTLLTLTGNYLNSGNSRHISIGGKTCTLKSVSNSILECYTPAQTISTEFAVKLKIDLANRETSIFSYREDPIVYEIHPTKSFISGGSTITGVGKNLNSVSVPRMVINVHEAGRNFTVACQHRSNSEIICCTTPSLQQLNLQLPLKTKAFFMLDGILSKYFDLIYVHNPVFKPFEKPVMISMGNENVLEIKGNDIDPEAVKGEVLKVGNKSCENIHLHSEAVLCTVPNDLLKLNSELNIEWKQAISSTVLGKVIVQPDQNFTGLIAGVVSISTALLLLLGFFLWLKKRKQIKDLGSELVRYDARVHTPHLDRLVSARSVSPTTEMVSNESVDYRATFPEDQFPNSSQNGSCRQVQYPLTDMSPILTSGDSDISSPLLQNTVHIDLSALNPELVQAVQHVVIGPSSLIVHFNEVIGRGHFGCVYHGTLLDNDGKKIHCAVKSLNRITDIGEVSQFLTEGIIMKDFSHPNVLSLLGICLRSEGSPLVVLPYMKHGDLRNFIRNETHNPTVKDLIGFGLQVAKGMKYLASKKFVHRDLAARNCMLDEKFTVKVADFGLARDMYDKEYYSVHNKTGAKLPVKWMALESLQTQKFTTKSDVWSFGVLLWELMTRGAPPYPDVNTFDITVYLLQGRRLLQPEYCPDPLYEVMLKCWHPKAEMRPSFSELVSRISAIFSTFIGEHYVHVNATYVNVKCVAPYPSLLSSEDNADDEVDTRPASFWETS
Procedure: (specific activity approx. 500 cpm/pmol, concentration as required) and 0.2 μM test compound. The reaction is initiated by the addition of the MgATP mix. After incubation for 40 minutes at room temperature, the reaction is stopped by the addition of 3% phosphoric acid solution. 10 μL of the reaction is then spotted onto a P30 filtermat and washed three times for 5 minutes in 75 mM phosphoric acid and once in methanol prior to drying and scintillation counting. This assay is performed by Millipore. The experiment is carried out in duplicate. The value for the control sample (DMSO) was set to 100%, and the values for the compound-treated samples were expressed as activity relative to the control sample.

NCI-H1993 cells = assay: Cellular proliferation analysis (MTS assay), NCI-H1993; type: cell-based; conditions: Homo sapiens, read-out: IC50 NCI-H1993
Procedure: (§1) Cell proliferation analysis was conducted by the MTS assay protocol. Briefly, U87-MG cells will be cultured in EMEM medium, EBC-1 cells and SNU-5 cells will be cultured in MEM medium, MKN45 cells, NCI-H1975 cells and NCI-H1993 cells will be cultured in RPMI1640 medium, A549 cells will be cultured in McCoy's 5a medium. […] All culture media will be purchased from GIBCO (USA). The cells will be harvested respectively during the logarithmic growth period and counted with hemocytometer. […] Add […] cell suspensions to 96-well plates (triplicates for each cell concentration), the final cell densities are 2×10^4 or 1×10^4 or 5×10^3 cells/well. The density of 5×10^3 cells/well will be used for our first test. The appropriate cell density will be determined and adjusted according to the results of our first test. The next day, dissolve the test article or positive drugs with DMSO or PBS as stock solution. Dispense 2 μl drug solution in 1 ml culture media. Add 200 μl drug media into 96-well plates (triplicate for each drug concentration) after discard the old media. The final concentration of drug will be 0, 0.03, 0.1, 0.3, 1, 3, 10, 30 or 100 μM. The plates will be cultured for another 7 days, then measured by means of MTS assay. Prepare MTS/PMS solution immediately prior to use, pipet 20 μl of the mixture into each well of the 96 well assay plate containing 100 μl culture media. (The final reaction volume is 120 μl). Incubate the plate for 1-4 hours at 37° C. in a humidified, 5% CO2 atmosphere. Record the absorbance at 490 nm using Victor X5 microplate spectrophotometer.

U87-MG cells = assay: Cellular proliferation analysis (MTS assay), U87-MG; type: cell-based; conditions: Homo sapiens, U-87 MG, 168 h, read-out: IC50 U87-MG
Procedure: as §1

NCI-H1975 cells = assay: Cellular proliferation analysis (MTS assay), NCI-H1975; type: cell-based; conditions: Homo sapiens, read-out: IC50 NCI-H1975
Procedure: as §1

SNU-5 cells = assay: Cellular proliferation analysis (MTS assay), SNU-5; type: cell-based; conditions: Homo sapiens, SNU-5, 168 h, read-out: IC50 SNU5
Procedure: as §1

MKN45 cells = assay: Cellular proliferation analysis (MTS assay), MKN45; type: cell-based; conditions: Homo sapiens, MKN-45, 168 h, read-out: IC50 MKN45
Procedure: as §1

A549 cells = assay: Cellular proliferation analysis (MTS assay), A549; type: cell-based; conditions: Homo sapiens, read-out: IC50 A549
Procedure: as §1

EBC-1 cells = assay: Cellular proliferation analysis (MTS assay), EBC-1; type: cell-based; conditions: Homo sapiens, read-out: IC50 EBC-1
Procedure: as §1

A549 tumors = conditions: oral gavage, vs vehicle control
Procedure: (§2) Human non small cell lung cancer cells A549, human gastric cancer cells MKN45, and human lung squamous cell carcinoma cells EBC-1 are expanded in culture, harvested, and injected subcutaneously onto the right flank of BALB/c nude mice. Testing compound is prepared in an appropriate vehicle and is administered by oral gavage when tumors are established (6-10 days after implant). Tumor response is determined by tumor volume measurement performed twice a week during the course of treatment. Tumor volume inhibition (% growth inhibition) is calculated by comparing treated groups to vehicle control group. Body weight is taken as a general measurement of toxicity.

MKN45 tumors = conditions: oral gavage, vs vehicle control
Procedure: as §2

EBC-1 tumors = conditions: oral gavage, vs vehicle control
Procedure: as §2

[1] = 168 h, NCI-H1993 cells, 7 days, MTS
[2] = 168 h, NCI-H1975 cells, 7 days, MTS
[3] = 168 h, EBC-1 cells, 7 days, MTS

Cc1c(C(=O)Nc2ccc(Oc3ccnc4c3OCCN4)c(F)c2)c(=O)n(-c2ccccc2)n1C [Example 20, N-(4-(3,4-dihydro-2H-pyrido[3,2-b][1,4]oxazin-8-yloxy)-3-fluorophenyl)-1,5-dimethyl-3-oxo-2-phenyl-2,3-dihydro-1H-pyrazole-4-carboxamide]
Activity (control) % (Met (h)): 45%

O=C(Nc1ccc(Oc2ccnc3c2CCN3)c(F)c1)c1cccn(-c2ccc(F)cc2)c1=O [Example 7, N-(4-(2,3-dihydro-1H-pyrrolo[2,3-b]pyridin-4-yloxy)-3-fluorophenyl)-1-(4-fluorophenyl)-2-oxo-1,2-dihydropyridine-3-carboxamide]
IC50 (NCI-H1993 cells; [1]): 4.6 µM | IC50 (U87-MG cells; U87-MG cells, 7 days, MTS): 5.1 µM | IC50 (NCI-H1975 cells; [2]): 17.8 µM | Activity (control) % (Met (h)): 11% | IC50 (SNU-5 cells; SNU5 cells, 7 days, MTS): 7.8 µM | IC50 (MKN45 cells; MKN45 cells, 7 days, MTS): 6.7 µM | IC50 (A549 cells; 168 h, A549 cells, 7 days, MTS): 23.3 µM | IC50 (EBC-1 cells; [3]): 9.4 µM

O=C(Nc1ccc(Oc2ccnc3c2OCCN3)c(F)c1)c1c[nH]cc(-c2ccc(F)cc2)c1=O [Example 3, N-(4-(3,4-dihydro-2H-pyrido[3,2-b][1,4]oxazin-8-yloxy)-3-fluorophenyl)-5-(4-fluorophenyl)-4-oxo-1,4-dihydropyridine-3-carboxamide]
IC50 (NCI-H1993 cells; NCI-H1993, 168 h): 1.5 µM | IC50 (U87-MG cells): 6.3 µM | IC50 (NCI-H1975 cells; NCI-H1975, 168 h): 14.6 µM | Activity (control) % (Met (h)): 6% | IC50 (SNU-5 cells): 3.1 µM | IC50 (MKN45 cells): 6.2 µM | IC50 (A549 cells; A549, 168 h): 20.1 µM | IC50 (EBC-1 cells; EBC-1, 168 h): 0.4 µM

O=C(Nc1ccc(Oc2ccnc3c2OCCN3)cc1)c1cccn(-c2ccc(F)cc2)c1=O [Example 9, N-(4-(3,4-dihydro-2H-pyrido[3,2-b][1,4]oxazin-8-yloxy)phenyl)-1-(4-fluorophenyl)-2-oxo-1,2-dihydropyridine-3-carboxamide]
IC50 (NCI-H1993 cells; [1]): 7.9 µM | IC50 (U87-MG cells; U87-MG cells, 7 days, MTS): 5.5 µM | IC50 (NCI-H1975 cells; [2]): 8.3 µM | Activity (control) % (Met (h)): 6% | IC50 (SNU-5 cells; SNU5 cells, 7 days, MTS): 2.9 µM | IC50 (MKN45 cells; MKN45 cells, 7 days, MTS): 1.3 µM | IC50 (A549 cells; 168 h, A549 cells, 7 days, MTS): 15.7 µM | IC50 (EBC-1 cells; [3]): 0.6 µM

O=C(Nc1ccc(F)cc1)C1(C(=O)Nc2ccc(Oc3ccnc4c3CCN4)c(F)c2)CC1 [Example 12]
IC50 (NCI-H1993 cells; [1]): 9.2 µM | IC50 (U87-MG cells; U87-MG cells, 7 days, MTS): 3.8 µM | IC50 (NCI-H1975 cells; [2]): 23.2 µM | Activity (control) % (Met (h)): 15% | IC50 (SNU-5 cells; SNU5 cells, 7 days, MTS): 9.3 µM | IC50 (MKN45 cells; MKN45 cells, 7 days, MTS): 11.5 µM | IC50 (A549 cells; 168 h, A549 cells, 7 days, MTS): 20.6 µM | IC50 (EBC-1 cells; [3]): 11.1 µM

Cc1c(C(=O)Nc2ccc(Oc3ccnc4c3CCN4)c(F)c2)c(=O)n(-c2ccccc2)n1C [Example 19, N-(4-(2,3-dihydro-1H-pyrrolo[2,3-b]pyridin-4-yloxy)-3-fluorophenyl)-1,5-dimethyl-3-oxo-2-phenyl-2,3-dihydro-1H-pyrazole-4-carboxamide]
Activity (control) % (Met (h)): 51%

O=C(Nc1ccc(Oc2ccnc3c2CCN3)c(F)c1)c1c[nH]cc(-c2ccc(F)cc2)c1=O [Example 1, N-(4-(2,3-dihydro-1H-pyrrolo[2,3-b]pyridin-4-yloxy)-3-fluorophenyl)-5-(4-fluorophenyl)-4-oxo-1,4-dihydropyridine-3-carboxamide]
growth inhibition of A549 tumors (A549 tumors; 60 mg/kg (qd x24)): 76.6% | growth inhibition of A549 tumors (A549 tumors; 120 mg/kg (qd x24)): 96.7% | growth inhibition of MKN45 tumors (MKN45 tumors; 60 mg/kg (qd x22)): 38.9% | growth inhibition of MKN45 tumors (MKN45 tumors; 120 mg/kg (qd x22)): 71.9% | growth inhibition of EBC-1 tumors (EBC-1 tumors; 40 mg/kg (qd x17)): 56.5% | growth inhibition of EBC-1 tumors (EBC-1 tumors; 80 mg/kg (qd x17)): 100% | IC50 (NCI-H1993 cells; NCI-H1993, 168 h): 0.4 µM | IC50 (U87-MG cells): 3.4 µM | IC50 (NCI-H1975 cells; NCI-H1975, 168 h): 13 µM | Activity (control) % (Met (h)): 1% | IC50 (SNU-5 cells): 0.9 µM | IC50 (MKN45 cells): 0.4 µM | IC50 (A549 cells; A549, 168 h): 15.4 µM | IC50 (EBC-1 cells; EBC-1, 168 h): 0.06 µM

O=C(Nc1ccc(Oc2ccnc3c2OCCCN3)cc1)c1c[nH]cc(-c2ccc(F)cc2)c1=O [Example 56, 5-(4-Fluoro-phenyl)-4-oxo-1,4-dihydro-pyridine-3-carboxylic acid [4-(6,7,8,9-tetrahydro-5-oxa-1,9-diaza-benzocyclohepten-4-yloxy)-phenyl]-amide]
IC50 (NCI-H1993 cells; [1]): 0.7 µM | IC50 (U87-MG cells; U87-MG cells, 7 days, MTS): 4.7 µM | IC50 (NCI-H1975 cells; [2]): 14.3 µM | Activity (control) % (Met (h)): 2% | IC50 (SNU-5 cells; SNU5 cells, 7 days, MTS): 1.7 µM | IC50 (MKN45 cells; MKN45 cells, 7 days, MTS): 1.2 µM | IC50 (A549 cells; 168 h, A549 cells, 7 days, MTS): 18.1 µM | IC50 (EBC-1 cells; [3]): 0.1 µM
